# PMC3356977, “Chemical Inhibition of Bacterial Protein Tyrosine Phosphatase Suppresses Capsule Production” (PLoS ONE, 2012)
# Target: T1, CpsB (Streptococcus pneumoniae, UniProt Q9AHD4)
# T1 construct: His6CpsB
# Test: inhibition of pNPP dephosphorylation by purified His6CpsB (A410)
# Assay type: biochemical
# T1 sequence (Q9AHD4 whole entry, looked up): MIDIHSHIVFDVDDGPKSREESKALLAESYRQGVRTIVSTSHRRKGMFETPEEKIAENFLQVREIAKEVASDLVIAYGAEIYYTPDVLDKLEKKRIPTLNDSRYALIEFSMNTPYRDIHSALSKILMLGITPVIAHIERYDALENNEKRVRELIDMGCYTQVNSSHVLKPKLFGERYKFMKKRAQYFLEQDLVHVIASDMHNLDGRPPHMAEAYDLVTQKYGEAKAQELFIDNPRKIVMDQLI
smiles,measurement,value
"CC(C)=CCC/C(C)=C/CC/C(C)=C/CC/C(C)=C/Cc1cc(OS(=O)(=O)O)ccc1O [FQE, fascioquinol E]",IC50,5.21 µM
